Assay type in all cases: in vivo
Series [1] deals with quack grass. Nature of the series: Herbicidal activity test against upland field weeds (foliar treatment test). More on the design: key to Foliar treatment herbicidal activity, quack grass: 0 (no control); 100 (complete control). The settings on record: 50 g ai/ha, scale 0-100. The method, boiled down:
(§1)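 Visual 0–100 control ratings relative to untreated plants, taken 14 (or 21) days after spraying foliage at 50 or 75 g a.i./ha. Spray solution: 50% acetone with 0.1% Tween-20; plants kept in greenhouse at 30±5 °C, 14 h light/10 h dark.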

Series [2] deals with barnyard grass. Described as above. The settings on record: 50 g ai/ha, scale 0-100; for pest or weed control at 50 g/ha: Echinochloa crus-galli. The method, boiled down:
as §1

Series [3] deals with bindweed. In words: Herbicidal activity test against upland field weeds (soil treatment test). The settings on record: 50 g ai/ha, scale 0 (no control) to 100 (complete control). The method, boiled down:
(§2)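 Weed control scored visually on a 0 (none) to 100 (complete) scale versus untreated pots at 14 or 21 days in greenhouse (30±5 °C, 14 h light). Test compounds, 50 or 75 g a.i./ha in 50% acetone/0.1% Tween-20, hand-sprayed onto soil one day post-sowing.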

Series [4] concerns fall panicum. Nature of the series: Herbicidal activity test against upland field weeds (foliar treatment test). The following applies: 50 g ai/ha, scale 0-100; for pest or weed control at 50 g/ha: Panicum dichotomiflorum. The method, boiled down: as §1
Series [5] deals with cotton. Nature of the series: Phytotoxicity test for field crops (soil treatment test). On the set-up: key: 0 (no harm); 9 (complete withered). As for the experimental part:
(§3) Experimental Example 4: Phytotoxicity Test for Field Crops (Soil Treatment Test)
(§4) Soil treatment was performed for sown crops and weeds in a square plastic pot having a surface area of 50 cm^2 filled with sterilized horticultural soil (pH 6.1, organic material 1.0%, clay 21%, silt 17%, sand 52%). As a fertilizer per pot, 0.5 g of horticultural mixed fertilizer (N:P:K=17:21:17) was treated by mixing with soil. Five kinds of crops such as rice, wheat, corn, soybean, and cotton were sown in each pot. One day after sowing, test compound solutions were made by diluting with the diluent (33% acetone, 0.1% Tween-20) so that the final treatment amount of the test compounds was 19˜300 g a.i./ha. The prepared test compound solutions were treated using a spray booth (SB6-016) at a treatment amount of 100 ml per 1 m^2 of treatment area. The treated crops were managed in greenhouse conditions (average temperature 30±5° C., light/dark=14/10 hours). External symptoms and phytotoxicity were visually investigated 10 and 20 days after treatment. In the evaluation of the phytotoxicity for the crop, the grade of 0 (no harm) to 9 (complete withered) was used. The results of Table 10 were obtained by evaluating phytotoxicity value to the untreated control.

Series [6] deals with rice. The series is described as above. On the set-up: key: 0 (no harm); 9 (complete withered). As for the experimental part:
as §3, §4

The subject of series [7] is wheat. The series is described as above. On the set-up: key: 0 (no harm); 9 (complete withered). As to the method: as §3, §4
In series [8] the test system is soybean. The description is as above. More on the design: key: 0 (no harm); 9 (complete withered). As for the experimental part:
as §3, §4

Series [9] concerns corn. The description is as above. On the set-up: key: 0 (no harm); 9 (complete withered). As to the method:
as §3, §4

The subject of series [10] is indian jointvetch. Nature of the series: Herbicidal activity test against upland field weeds (soil treatment test). More on the design: key to Soil treatment herbicidal activity, Indian jointvetch: 0 (no control); 100 (complete control). The following applies: 50 g ai/ha, scale 0 (no control) to 100 (complete control). The essentials: as §2
Series [11] has as its system crabgrass. The series is described as above. More on the design: key to Soil treatment herbicidal activity, Crabgrass: 0 (no control); 100 (complete control). The settings on record: 50 g ai/ha, scale 0 (no control) to 100 (complete control). The method, boiled down: as §2
Series [12] relates to cocklebur. In words: Herbicidal activity test against upland field weeds (foliar treatment test). More on the design: key to Foliar treatment herbicidal activity, Cocklebur: 0 (no control); 100 (complete control). The settings on record: 50 g ai/ha, scale 0-100; for pest or weed control at 50 g/ha: Xanthium strumarium. The essentials:
as §1

Series [13] relates to barnyard grass. In words: Herbicidal activity test against upland field weeds (soil treatment test). The settings on record: 50 g ai/ha, scale 0 (no control) to 100 (complete control). More on the design: key to Soil treatment herbicidal activity, barnyard grass: 0 (no control); 100 (complete control). The essentials: as §2
Where [14] appears, read: 50 g ai/ha, Cotton (10 days after treatment).
The mark [15] stands for this setting: 50 g ai/ha, Cotton (20 days after treatment).
Where [16] appears, read: 100 g ai/ha, Cotton (10 days after treatment).
Setting [17] is: 100 g ai/ha, Cotton (20 days after treatment).
Setting [18] is: 50 g ai/ha, Rice (10 days after treatment).
[19] abbreviates: 50 g ai/ha, Rice (20 days after treatment).
Setting [20] is: 100 g ai/ha, Rice (10 days after treatment).
Setting [21] is: 100 g ai/ha, Rice (20 days after treatment).
[22] abbreviates: 50 g ai/ha, Wheat (10 days after treatment).
[23] abbreviates: 50 g ai/ha, Wheat (20 days after treatment).
The mark [24] stands for this setting: 100 g ai/ha, Wheat (10 days after treatment).
Setting [25] is: 100 g ai/ha, Wheat (20 days after treatment).
Setting [26] is: 50 g ai/ha, Soybean (20 days after treatment).
[27] abbreviates: 50 g ai/ha, Corn (10 days after treatment).
The mark [28] stands for this setting: 50 g ai/ha, Corn (20 days after treatment).
[29] abbreviates: 100 g ai/ha, Corn (10 days after treatment).
Where [30] appears, read: 100 g ai/ha, Corn (20 days after treatment).
The mark [31] stands for this setting: 50 g ai/ha, Soybean (10 days after treatment).

Each structure is given as a SMILES string.

As for `CCOC(=O)OC(C)n1nnn(C)c1=NC(=O)c1ccc(C(F)(F)F)nc1CSCc1nnn(C)n1` (stereo not shown) [Compound No. 4-10, ethyl (1-(4-methyl-5-((2-((((2-methyl-2H-tetrazol-5-yl)methyl)thio)methyl)-6-(trifluoromethyl)nicotinoyl)imino)-4,5-dihydro-1H-tetrazol-1-yl)ethyl)carbonate], in series [1], the “Foliar treatment herbicidal activity, quack grass” value is reported as 0. For the same compound, the “Foliar treatment herbicidal activity, barnyard grass” value in series [2] was found to be 98. Further, the “Soil treatment herbicidal activity, Bindweed” value in series [3] was 40. Moreover, in [4], the “Foliar treatment herbicidal activity, Fall panicum” value amounted to 95. Also, the “Soil treatment phytotoxicity, Cotton” value stood at 0 in [5] (setting [14]), 1 in [5] (setting [15]), 0 in [5] (setting [16]) and 2 in series [5] (setting [17]). Also, the “Soil treatment phytotoxicity, Rice” value in series [6] (setting [18]), in series [6] (setting [19]), in series [6] (setting [20]) and in [6] (setting [21]) was 0 each time. The “Soil treatment phytotoxicity, Wheat” value in [7] (setting [22]), in series [7] (setting [23]), in [7] (setting [24]) and in series [7] (setting [25]) was 0 each time. Also, the “Soil treatment phytotoxicity, Soybean” value is listed as 1 in [8] (setting [26]) and 3 in [8] (100 g ai/ha, Soybean (20 days after treatment)). Besides, the “Soil treatment phytotoxicity, Corn” value in series [9] (setting [27]), in [9] (setting [28]), in [9] (setting [29]) and in series [9] (setting [30]) was 0 each time. Further, the “Soil treatment herbicidal activity, Indian jointvetch” value in series [10] is 95BI. Also, in series [11], the “Soil treatment herbicidal activity, Crabgrass” value is listed as 100. Besides, in series [12], the “Foliar treatment herbicidal activity, Cocklebur” value stood at 100. In addition, in [13], the “Soil treatment herbicidal activity, barnyard grass” value stood at 100.

For orientation: pest or weed control means how far the test organism was held down. In the case of `Cn1nnc(CSCc2nc(C(F)(F)F)ccc2C(=O)Nc2nnnn2C)n1` [Compound No. 2-102, N-(1-methyl-1H-tetrazol-5-yl)-2-((((2-methyl-2H-tetrazol-5-yl)methyl)thio)methyl)-6-(trifluoromethyl)nicotinamide], the “Foliar treatment herbicidal activity, quack grass” value in [1] came out at 0. The pest or weed control at 50 g/ha is 95% in [2], 80% in [4] and 98% in series [13] (Echinochloa crus-galli). Besides, the “Soil treatment herbicidal activity, Crabgrass” value in series [11] amounted to 100. Moreover, in series [12], the “Foliar treatment herbicidal activity, Cocklebur” value came out at 100.

Regarding `COc1nc(COCc2nc(C(F)(F)F)ccc2C(=O)Nc2nnnn2C)nn1C` [Compound No. 2-129, 2-(((5-methoxy-1-methyl-1H-1,2,4-triazol-3-yl)methoxy)methyl)-N-(1-methyl-1H-tetrazol-5-yl)-6-(trifluoromethyl)nicotinamide], the “Foliar treatment herbicidal activity, quack grass” value in series [1] is on record as 0. Moreover, the pest or weed control at 50 g/ha in [2] is 90%; in series [4], 50%; in series [12], 70%. Further, the “Soil treatment phytotoxicity, Cotton” value worked out at 0 in [5] (setting [14]), 0 in series [5] (setting [15]), 1 in series [5] (setting [16]) and 5 in series [5] (setting [17]). The “Soil treatment phytotoxicity, Rice” value is recorded as 5 in series [6] (setting [18]), 6 in series [6] (setting [19]), 5 in series [6] (setting [20]) and 7 in [6] (setting [21]). Further, the “Soil treatment phytotoxicity, Wheat” value in series [7] (setting [22]), in series [7] (setting [23]), in [7] (setting [24]) and in [7] (setting [25]) was 0 in each case. In addition, the “Soil treatment phytotoxicity, Soybean” value in series [8] (setting [31]) and in [8] (setting [26]) was 0 throughout. In addition, the “Soil treatment phytotoxicity, Corn” value in [9] (setting [27]), in series [9] (setting [28]), in [9] (setting [29]) and in [9] (setting [30]) was 0 in each case. Moreover, in series [10], the “Soil treatment herbicidal activity, Indian jointvetch” value amounted to 0. Also, the “Soil treatment herbicidal activity, Crabgrass” value in series [11] was determined as 0. For the same compound, in series [13], the “Soil treatment herbicidal activity, barnyard grass” value came out at 0.

As for `Cn1nc(COCc2nc(C(F)(F)F)ccc2C(=O)Nc2nnnn2C)nc1Br` [Compound No. 2-136, 2-(((5-bromo-1-methyl-1H-1,2,4-triazol-3-yl)methoxy)methyl)-N-(1-methyl-1H-tetrazol-5-yl)-6-(trifluoromethyl)nicotinamide], the “Foliar treatment herbicidal activity, quack grass” value in series [1] worked out at 0. For the same compound, the pest or weed control at 50 g/ha came to 70% in series [2], 50% in series [4] and 95% in [12]. For the same compound, the “Soil treatment phytotoxicity, Cotton” value in series [5] (setting [14]) came to 0; in [5] (setting [15]), 0; in series [5] (setting [16]), 1; in [5] (setting [17]), 0. The “Soil treatment phytotoxicity, Rice” value in [6] (setting [18]) came out at 3; in [6] (setting [19]) it was 4; in [6] (setting [20]), 4; in series [6] (setting [21]), 7. For the same compound, the “Soil treatment phytotoxicity, Wheat” value in [7] (setting [22]), in series [7] (setting [23]), in series [7] (setting [24]) and in series [7] (setting [25]) was 0 each time. The “Soil treatment phytotoxicity, Soybean” value in [8] (setting [31]) and in series [8] (setting [26]) was 0 throughout. Besides, the “Soil treatment phytotoxicity, Corn” value in series [9] (setting [27]), in [9] (setting [28]), in series [9] (setting [29]) and in series [9] (setting [30]) was 0 throughout.

Values taken from patent US12495798B2, “Nicotinamide compound and herbicidal composition comprising compound” (KOREA RESEARCH INSTITUTE OF CHEMICAL TECHNOLOGY, priority 2019, dated 2025).
